Laboratory results from patent publication US6596863B2, “Medical composition containing nitroetheneamine Derivative or salt there of as active constituent” (Ishihara Sangyo Kaisha, Ltd., priority 1998, dated 2003).
Marks after values point to notes of the source that are not given here.

Tests used:
[1] = test system: Colon 26/AD cells (mouse colon cancer); format: in vivo
Experimental: Colon 26 mouse colon cancer cells (obtained from Cancer Chemotherapy Center Foundation for Cancer Research) were transplanted subcutaneously to BALB/c mouse, 10 days later, the grown tumor was taken out. It was hashed in a Hanks equilibrium salt solution and passed through a metal mesh to obtain single cells, which were cultured in vitro (37° C., 5% CO2) (using 10% fetal bovine serum-containing Dulbecco's Modified Eagle Medium (D-5648, manufactured by Sigma Co.)). […] The same cell strain always produced and secreted MMP-2 in the supernatant of the in vitro culture, but when cultured by an addition of TNF-α (50 ng/ml) in the culture solution, it produced MMP-9 remarkably.
With reference to the method by Tsuruo et al (Japanese Journal of Cancer Research (Gann), Vol. 75, 193-198, 1984), the inhibition effects against experimental lung metastasis were evaluated. Namely, 3×10^4 Colon 26/AD cells (suspended in 0.2 ml of Minimum Essential Medium (manufactured by Nissui Seiyaku K. K.)) cultured in vitro were transplanted through the tail vein of a male BALB/c AnNCrj mouse (purchased from Charles River Japan, Inc.) of 6 weeks old (Day 0). In the case of Compound No. 37, it was suspended in a 1% Tween 80/physiological sodium chloride aqueous solution and intraperitoneally administered (administered in a volume of 10 ml/kg) immediately (within 5 minutes) before transplantation of the cells, 2 hours later and once per day on Day 1-4 and Day 7-11 (a total of 11 times). Further, in the case of Compound No. 157, it was dissolved in 100 mM Tris-HCl (pH 8.5)/150 mM NaCl and forcibly orally administered (administered in a volume of 10 ml/kg) by means of a metal sonde 30 minutes before transplantation of the cells, in the morning and evening of Day 1 and once per day on Day 2-4, Day 7-11 and Day 14 (a total of 12 times). To the vehicle control group, the respective solvents containing no test materials, were administered in the same manner. On Day 14 or Day 15, the lung of each mouse was taken out, and the weight was measured, and the metastatis inhibition rate was calculated in accordance with the following formula. [formula]
A is the weight of lung of the treated group
B is the average weight of lung of the normal group
C is the average weight of lung of the solvent control group.

[2] = test system: mouse arthritis model induced by a single immunization with collagen; assay: Mouse arthritis model induced by a single immunization with collagen; format: in vivo
Experimental: With reference to the method by Kato, F. et al (Annals of the Rheumatic Diseases, Vol. 55, 535-539, 1996), a bovine type II collagen (K-41, manufactured by collagen Gijutsu Kenkyukai) solution (3 mg/ml) dissolved in 0.05N acetic acid and Freund's complete adjuvant (Freund, Adjuvant Complete; No. F5506, manufactured by Sigma Co.) were mixed in equal amounts and subjected to ultrasonic treatment (under cooling with ice, 20 seconds×3 times) to obtain a uniform emulsion.
0.1 ml (150 μg) of the antigen prepared as described above, was administered to the tail head skin of a female DBA/1JNCrj mouse of 5 weeks old (purchased from Charles River Japan, Inc.) (Day 0). After 2 weeks from sensitization (Day 14), Compound No. 164 (50 mg/kg) suspended in a 1% Tween 80/physiological sodium chloride aqueous solution was intraperitoneally administered (administered in a volume of 10 ml/kg) once a day continuously for 5 weeks. To the vehicle control group, the 1% Tween 80/physiological sodium chloride aqueous solution was administered in the same manner.
Sideration of arthritis was observed once a week from Day 1 in accordance with the following evaluation standards disclosed in a literature of Kato, F. et al (Annals of the Rheumatic Diseases, Vol. 55, 535-539, 1996) with respect to Knuckle joints of the respective four limbs.

Structure (SMILES)	Metastatis inhibition ratio (%) ([1]; 10 mg/kg × 11 times (head), oral, Day 15) [%*]	Lung weight increase (g) against normal mouse ([1]; 10 mg/kg × 11 times (head), oral, Day 15, vehicle control 0.183 ± 0.11) [g]	Weight of lung (g) (Day 15) ([1]; 10 mg/kg × 11 times (head), oral, Day 15, vehicle control 0.364, normal mouse 0.181)	inhibition ratio of experimental metastasis of Colon 26/AD to lung ([1]; 10 mg/kg, oral administration, total of 12 times, male BALB/c mouse, from lung weight) [%]	sideration of arthritis compared with the control group ([2]; 50 mg/kg intraperitoneal everyday from Day 14 for 5 weeks, female DBA/1J mouse, p<0.01, Wilcoxon ranking test)	toxicity / body weight increase by observation of general findings ([2]; 50 mg/kg intraperitoneal everyday, during the test period)	Sideration ratio of arthritis (number of diseased animals/number of tested animals) ([2]; Day 14 (initial of administration of drug), 50 mg/kg intraperitoneal, vehicle control 0/8)	Sideration ratio of arthritis (number of diseased animals/number of tested animals) ([2]; Day 21, 50 mg/kg intraperitoneal once a day, vehicle control 2/8)	Sideration ratio of arthritis (number of diseased animals/number of tested animals) ([2]; Day 28, 50 mg/kg intraperitoneal once a day, vehicle control 7/8)	Sideration ratio of arthritis (number of diseased animals/number of tested animals) ([2]; Day 35, 50 mg/kg intraperitoneal once a day, vehicle control 8/8)	Sideration ratio of arthritis (number of diseased animals/number of tested animals) ([2]; Day 42, 50 mg/kg intraperitoneal once a day, vehicle control 8/8)	Sideration ratio of arthritis (number of diseased animals/number of tested animals) ([2]; Day 49, 50 mg/kg intraperitoneal once a day, vehicle control 8/8)
CS(=O)(=O)NC(=C[N+](=O)[O-])NNc1cc(C(F)(F)F)cc(Cl)n1 [Compound No. 157, N-(1-(6-chloro-4-trifluoromethyl-2-pyridyl)hydrazino-2-nitroethenyl)methanesulfonamide]	59.5	0.070 ± 0.08	0.257	59.5								
CCOCCOc1cc(C(F)(F)F)cc(NNC(=C[N+](=O)[O-])NS(C)(=O)=O)n1 [Compound No. 164, N-(1-(6-(2-ethoxyethoxy)-4-trifluoromethyl-2-pyridyl)hydrazino-2-nitroethenyl)methanesulfonamide]					significantly delayed	no distinct toxicity or inhibition against the body weight increase	0/8	0/8	2/8	6/8	7/8	7/8
